According to PubChem BioAssay (NCI):
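Results reflect a 48-hour exposure of cells in 96-well plates to compound at five concentrations. GI50 is the concentration that inhibits growth by half. TGI denotes the concentration required for complete inhibition of growth.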

Experiments:
Assay in all cases: growth of human tumour cells (NCI), 48 h
SN12C renal = test system: SN12C renal
SK-OV-3 ovarian = test system: SK-OV-3 ovarian
DU-145 prostate = test system: DU-145 prostate
HCT-116 colon = test system: HCT-116 colon
SK-MEL-5 melanoma = test system: SK-MEL-5 melanoma
BT-549 breast = test system: BT-549 breast
NCI-H460 lung = test system: NCI-H460 lung
NCI-H226 lung = test system: NCI-H226 lung
CCRF-CEM leukemia = test system: CCRF-CEM leukemia
NCI-H23 lung = test system: NCI-H23 lung
SF-539 CNS = test system: SF-539 CNS
COLO 205 colon = test system: COLO 205 colon
UACC-257 melanoma = test system: UACC-257 melanoma
UACC-62 melanoma = test system: UACC-62 melanoma
SR leukemia = test system: SR leukemia
HOP-62 NSCLC = test system: HOP-62 NSCLC
HS 578T breast = test system: HS 578T breast
T-47D breast = test system: T-47D breast
MOLT-4 leukemia = test system: MOLT-4 leukemia
HOP-92 NSCLC = test system: HOP-92 NSCLC
SNB-75 CNS = test system: SNB-75 CNS
MDA-MB-231 breast = test system: MDA-MB-231 breast
HCC-2998 colon = test system: HCC-2998 colon
MDA-MB-435 = test system: MDA-MB-435
EKVX NSCLC = test system: EKVX NSCLC
RXF 393 renal = test system: RXF 393 renal
CAKI-1 renal = test system: CAKI-1 renal
UO-31 renal = test system: UO-31 renal
SK-MEL-28 melanoma = test system: SK-MEL-28 melanoma
MALME-3M melanoma = test system: MALME-3M melanoma
OVCAR-3 ovarian = test system: OVCAR-3 ovarian
PC-3 prostate = test system: PC-3 prostate
SW-620 colon = test system: SW-620 colon
NCI/ADR-RES ovarian = test system: NCI/ADR-RES ovarian
SF-295 CNS = test system: SF-295 CNS
OVCAR-4 ovarian = test system: OVCAR-4 ovarian
LOX IMVI melanoma = test system: LOX IMVI melanoma
K-562 leukemia = test system: K-562 leukemia
HCT-15 colon = test system: HCT-15 colon
KM12 colon = test system: KM12 colon
A498 renal = test system: A498 renal
OVCAR-5 ovarian = test system: OVCAR-5 ovarian
M14 melanoma = test system: M14 melanoma
RPMI-8226 leukemia = test system: RPMI-8226 leukemia
TK-10 renal = test system: TK-10 renal
786-0 renal = test system: 786-0 renal
U251 CNS = test system: U251 CNS
HT29 colon = test system: HT29 colon
ACHN renal = test system: ACHN renal
SK-MEL-2 melanoma = test system: SK-MEL-2 melanoma
SNB-19 CNS = test system: SNB-19 CNS
OVCAR-8 ovarian = test system: OVCAR-8 ovarian
IGROV1 ovarian = test system: IGROV1 ovarian
NCI-H522 lung = test system: NCI-H522 lung
MCF7 breast = test system: MCF7 breast
HL-60(TB) leukemia = test system: HL-60(TB) leukemia
SF-268 CNS = test system: SF-268 CNS
A549 NSCLC = test system: A549 NSCLC

## C[C@@H](Nc1c(C#N)cnc2ccc(-c3cnc(Cl)c(NS(C)(=O)=O)c3)cc12)c1ccccc1
SN12C renal
  GI50: 322 nM
  TGI: > 100000 nM
SK-OV-3 ovarian
  GI50: 431 nM
  TGI: 3180 nM
DU-145 prostate
  GI50: 380 nM
  TGI: 11700 nM
HCT-116 colon
  GI50: 124 nM
  TGI: 4830 nM
SK-MEL-5 melanoma
  GI50: 138 nM
  TGI: 283 nM
BT-549 breast
  GI50: 146 nM
  TGI: 2560 nM
NCI-H460 lung
  GI50: 357 nM
  TGI: 12000 nM
NCI-H226 lung
  GI50: 676 nM
  TGI: 18200 nM
CCRF-CEM leukemia
  GI50: 178 nM
  TGI: > 21400 nM
NCI-H23 lung
  GI50: 233 nM
  TGI: 5840 nM
SF-539 CNS
  GI50: 372 nM
  TGI: 4080 nM
COLO 205 colon
  GI50: 340 nM
  TGI: 2240 nM
UACC-257 melanoma
  GI50: 495 nM
  TGI: 7050 nM
UACC-62 melanoma
  GI50: 206 nM
  TGI: 2030 nM
SR leukemia
  GI50: 206 nM
  TGI: 6190 nM
HOP-62 NSCLC
  GI50: 326 nM
  TGI: 5120 nM
HS 578T breast
  GI50: 181 nM
  TGI: 1290 nM
T-47D breast
  GI50: 112 nM
  TGI: 3880 nM
MOLT-4 leukemia
  GI50: 144 nM
  TGI: 1810 nM
HOP-92 NSCLC
  GI50: 51.5 nM
  TGI: 636 nM
SNB-75 CNS
  GI50: < 35.3 nM
  TGI: 701 nM
MDA-MB-231 breast
  GI50: 594 nM
  TGI: 16600 nM
HCC-2998 colon
  GI50: 515 nM
  TGI: 8730 nM
MDA-MB-435
  GI50: 495 nM
  TGI: 11400 nM
EKVX NSCLC
  GI50: 431 nM
  TGI: 5350 nM
RXF 393 renal
  GI50: 158 nM
  TGI: 877 nM
CAKI-1 renal
  GI50: 241 nM
  TGI: 3980 nM
UO-31 renal
  GI50: 256 nM
  TGI: 9300 nM
SK-MEL-28 melanoma
  GI50: 346 nM
  TGI: 11200 nM
MALME-3M melanoma
  GI50: 166 nM
  TGI: 1820 nM
OVCAR-3 ovarian
  GI50: 260 nM
  TGI: 3820 nM
PC-3 prostate
  GI50: 259 nM
  TGI: 7970 nM
SW-620 colon
  GI50: 343 nM
  TGI: 12100 nM
NCI/ADR-RES ovarian
  GI50: 1610 nM
  TGI: 32100 nM
SF-295 CNS
  GI50: 252 nM
  TGI: 2290 nM
OVCAR-4 ovarian
  GI50: 450 nM
  TGI: 15400 nM
LOX IMVI melanoma
  GI50: 275 nM
  TGI: 1680 nM
K-562 leukemia
  GI50: 264 nM
  TGI: > 100000 nM
HCT-15 colon
  GI50: 303 nM
  TGI: 11500 nM
KM12 colon
  GI50: 493 nM
  TGI: 11300 nM
A498 renal
  GI50: 207 nM
  TGI: 778 nM
OVCAR-5 ovarian
  GI50: 544 nM
  TGI: 19200 nM
M14 melanoma
  GI50: 442 nM
  TGI: 12500 nM
RPMI-8226 leukemia
  GI50: 121 nM
  TGI: 582 nM
TK-10 renal
  GI50: 184 nM
  TGI: 1880 nM
786-0 renal
  GI50: 365 nM
  TGI: > 100000 nM
U251 CNS
  GI50: 335 nM
  TGI: 13400 nM
HT29 colon
  GI50: 351 nM
  TGI: 12900 nM
ACHN renal
  GI50: 540 nM
  TGI: 44100 nM
SK-MEL-2 melanoma
  GI50: 249 nM
  TGI: 1590 nM
SNB-19 CNS
  GI50: 500 nM
  TGI: 12100 nM
OVCAR-8 ovarian
  GI50: 559 nM
  TGI: > 36600 nM
IGROV1 ovarian
  GI50: 181 nM
  TGI: 1010 nM
NCI-H522 lung
  GI50: 440 nM
  TGI: 11500 nM
MCF7 breast
  GI50: 41.7 nM
  TGI: 4080 nM
HL-60(TB) leukemia
  GI50: 222 nM
  TGI: 6480 nM
SF-268 CNS
  GI50: 275 nM
  TGI: 7330 nM
A549 NSCLC
  GI50: 492 nM
  TGI: 6470 nM
